The target of test [1] is T1, recombinant human ACC1 (rhACC1) (Homo sapiens, UniProt Q13085, DEL44-44).
T1 construct: recombinant baculovirus containing full length human ACC1 cDNA; made in house; host or cells: SF9 insect cells, recombinant baculovirus
The experiment in a line: recombinant hACC1 Transcreener ADP detection FP assay. The format is biochemical. The settings on record: 50 μM ATP, 30 μM acetyl-CoA. As for the experimental part: (§1) For example direct inhibition of ACC activity, for the compound of Formula (I) was determined using preparations of recombinant human ACC1 (rhACC1) and recombinant human ACC2 (rhACC2). Representative sequences of the recombinant human ACC1 and ACC2 that can be used in the assay are provided herein as SEQ ID NO. 1 and SEQ. ID NO. 2, respectively.
[1] Preparation of rhACC1. Two liters of SF9 cells, infected with recombinant baculovirus containing full length human ACC1 cDNA, were suspended in ice-cold lysis buffer (25 mM Tris, pH 7.5; 150 mM NaCl; 10% glycerol; 5 mM imidazole (EMD Bioscience; Gibbstown, N.J.); 2 mM TCEP (BioVectra; Charlottetown, Canada); Benzonase nuclease (10000 U/100 g cell paste; Novagen; Madison, Wis.); EDTA-free protease inhibitor cocktail (1 tab/50 mL; Roche Diagnostics; Mannheim, Germany). Cells were lysed by 3 cycles of freeze-thaw and centrifuged at 40,000×g for 40 minutes (4° C.). Supernatant was directly loaded onto a HisTrap FF crude column (GE Healthcare; Piscataway, N.J.) and eluted with an imidazole gradient up to 0.5 M over 20 column volumes (CV). ACC1-containing fractions were pooled and diluted 1:5 with 25 mM Tris, pH 7.5, 2 mM TCEP, 10% glycerol and direct loaded onto a CaptoQ (GE Healthcare) column and eluted with an NaCl gradient up to 1 M over 20 CV's. Phosphate groups were removed from purified ACC1 by incubation with lambda phosphatase (100 U/10 μM target protein; New England Biolabs; Beverly, Mass.) for 14 hours at 4° C.; okadaic acid was added (1 μM final concentration; Roche Diagnostics) to inhibit the phosphatase. Purified ACC1 was exchanged into 25 mM Tris, pH 7.5, 2 mM TCEP, 10% glycerol, 0.5 M NaCl by 6 hour dialysis at 4° C. Aliquots were prepared and frozen at −80° C.
[2] Measurement of rhACC1 inhibition. hACC1 was assayed in a Costar #3676 (Costar, Cambridge, Mass.) 384-well plate using the Transcreener ADP detection FP assay kit (Bellbrook Labs, Madison, Wis.) using the manufacturer's recommended conditions for a 50 μM ATP reaction. The final conditions for the assay were 50 mM HEPES, pH 7.2, 10 mM MgCl2, 7.5 mM tripotassium citrate, 2 mM DTT, 0.1 mg/mL BSA, 30 μM acetyl-CoA, 50 μM ATP, and 10 mM KHCO3 Typically, a 10 μl reaction was run for 120 min at 25° C., and 10 μl of Transcreener stop and detect buffer was added and the combination incubated at room temp for an additional 1 hour. The data was acquired on a Envision Fluorescence reader (Perkinelmer) using a 620 excitation Cy5 FP general dual mirror, 620 excitation Cy5 FP filter, 688 emission (S) and a 688 (P) emission filter.
(§2) The results using the recombinant hACC1 and recombinant hACC2 Transcreener assays described above are summarized in the table below for the Compounds of Formula (I) exemplified in the Examples above.

Test [2] has as its target T2, recombinant human ACC2 (rhACC2) (Homo sapiens, UniProt O00763, V2141I).
T2 construct: a full length Cytomax clone of ACC2 was purchased from Cambridge Bioscience Limited; made in house; host or cells: CHO cells, tetracycline-induced (PcDNA5 FRT TO-TOPO)
Nature of the test: recombinant hACC2 Transcreener ADP detection FP assay. The format is biochemical. The settings on record: 50 μM ATP, 30 μM acetyl-CoA. How it is done: as §1
[3] Preparation of rhACC2. Human ACC2 inhibition was measured using purified recombinant human ACC2 (hrACC2). Briefly, a full length Cytomax clone of ACC2 was purchased from Cambridge Bioscience Limited and was sequenced and subcloned into PcDNA5 FRT TO-TOPO (Invitrogen, Carlsbad, Calif.). The ACC2 was expressed in CHO cells by tetracycline induction and harvested in 5 liters of DMEM/F12 with glutamine, biotin, hygromycin and blasticidin with 1 μg/mL tetracycline (Invitrogen, Carlsbad, Calif.). The conditioned medium containing ACC2 was then applied to a Softlink Soft Release Avidin column (Promega, Madison, Wis.) and eluted with 5 mM biotin. 4 mgs of ACC2 were eluted at a concentration of 0.05 mg/mL (determined by A280) with an estimated purity of 95% ([…]). The purified ACC2 was dialyzed in 50 mM Tris, 200 mM NaCl, 4 mM DTT, 2 mM EDTA, and 5% glycerol. The pooled protein was frozen and stored at −80° C., with no loss of activity upon thawing. For measurement of ACC2 activity and assessment of ACC2 inhibition, test compounds were dissolved in DMSO and added to the rhACC2 enzyme as a 5× stock with a final DMSO concentration of 1%.
[4] Measurement of human ACC2 inhibition. hACC2 was assayed in a Costar #3676 (Costar, Cambridge, Mass.) 384-well plate using the Transcreener ADP detection FP assay kit (Bellbrook Labs, Madison, Wis.) using the manufacturer's recommended conditions for a 50 uM ATP reaction. The final conditions for the assay were 50 mM HEPES, pH 7.2, 5 mM MgCl2, 5 mM tripotassium citrate, 2 mM DTT, 0.1 mg/mL BSA, 30 μM acetyl-CoA, 50 μM ATP, and 8 mM KHCO3. Typically, a 10 μl reaction was run for 50 min at 25° C., and 10 μl of Transcreener stop and detect buffer was added and the combination incubated at room temp for an additional 1 hour. The data was acquired on an Envision Fluorescence reader (Perkinelmer) using a 620 excitation Cy5 FP general dual mirror, 620 excitation Cy5 FP filter, 688 emission (S) and a 688 (P) emission filter.
as §2

T2 sequence (O00763 whole entry V2141I): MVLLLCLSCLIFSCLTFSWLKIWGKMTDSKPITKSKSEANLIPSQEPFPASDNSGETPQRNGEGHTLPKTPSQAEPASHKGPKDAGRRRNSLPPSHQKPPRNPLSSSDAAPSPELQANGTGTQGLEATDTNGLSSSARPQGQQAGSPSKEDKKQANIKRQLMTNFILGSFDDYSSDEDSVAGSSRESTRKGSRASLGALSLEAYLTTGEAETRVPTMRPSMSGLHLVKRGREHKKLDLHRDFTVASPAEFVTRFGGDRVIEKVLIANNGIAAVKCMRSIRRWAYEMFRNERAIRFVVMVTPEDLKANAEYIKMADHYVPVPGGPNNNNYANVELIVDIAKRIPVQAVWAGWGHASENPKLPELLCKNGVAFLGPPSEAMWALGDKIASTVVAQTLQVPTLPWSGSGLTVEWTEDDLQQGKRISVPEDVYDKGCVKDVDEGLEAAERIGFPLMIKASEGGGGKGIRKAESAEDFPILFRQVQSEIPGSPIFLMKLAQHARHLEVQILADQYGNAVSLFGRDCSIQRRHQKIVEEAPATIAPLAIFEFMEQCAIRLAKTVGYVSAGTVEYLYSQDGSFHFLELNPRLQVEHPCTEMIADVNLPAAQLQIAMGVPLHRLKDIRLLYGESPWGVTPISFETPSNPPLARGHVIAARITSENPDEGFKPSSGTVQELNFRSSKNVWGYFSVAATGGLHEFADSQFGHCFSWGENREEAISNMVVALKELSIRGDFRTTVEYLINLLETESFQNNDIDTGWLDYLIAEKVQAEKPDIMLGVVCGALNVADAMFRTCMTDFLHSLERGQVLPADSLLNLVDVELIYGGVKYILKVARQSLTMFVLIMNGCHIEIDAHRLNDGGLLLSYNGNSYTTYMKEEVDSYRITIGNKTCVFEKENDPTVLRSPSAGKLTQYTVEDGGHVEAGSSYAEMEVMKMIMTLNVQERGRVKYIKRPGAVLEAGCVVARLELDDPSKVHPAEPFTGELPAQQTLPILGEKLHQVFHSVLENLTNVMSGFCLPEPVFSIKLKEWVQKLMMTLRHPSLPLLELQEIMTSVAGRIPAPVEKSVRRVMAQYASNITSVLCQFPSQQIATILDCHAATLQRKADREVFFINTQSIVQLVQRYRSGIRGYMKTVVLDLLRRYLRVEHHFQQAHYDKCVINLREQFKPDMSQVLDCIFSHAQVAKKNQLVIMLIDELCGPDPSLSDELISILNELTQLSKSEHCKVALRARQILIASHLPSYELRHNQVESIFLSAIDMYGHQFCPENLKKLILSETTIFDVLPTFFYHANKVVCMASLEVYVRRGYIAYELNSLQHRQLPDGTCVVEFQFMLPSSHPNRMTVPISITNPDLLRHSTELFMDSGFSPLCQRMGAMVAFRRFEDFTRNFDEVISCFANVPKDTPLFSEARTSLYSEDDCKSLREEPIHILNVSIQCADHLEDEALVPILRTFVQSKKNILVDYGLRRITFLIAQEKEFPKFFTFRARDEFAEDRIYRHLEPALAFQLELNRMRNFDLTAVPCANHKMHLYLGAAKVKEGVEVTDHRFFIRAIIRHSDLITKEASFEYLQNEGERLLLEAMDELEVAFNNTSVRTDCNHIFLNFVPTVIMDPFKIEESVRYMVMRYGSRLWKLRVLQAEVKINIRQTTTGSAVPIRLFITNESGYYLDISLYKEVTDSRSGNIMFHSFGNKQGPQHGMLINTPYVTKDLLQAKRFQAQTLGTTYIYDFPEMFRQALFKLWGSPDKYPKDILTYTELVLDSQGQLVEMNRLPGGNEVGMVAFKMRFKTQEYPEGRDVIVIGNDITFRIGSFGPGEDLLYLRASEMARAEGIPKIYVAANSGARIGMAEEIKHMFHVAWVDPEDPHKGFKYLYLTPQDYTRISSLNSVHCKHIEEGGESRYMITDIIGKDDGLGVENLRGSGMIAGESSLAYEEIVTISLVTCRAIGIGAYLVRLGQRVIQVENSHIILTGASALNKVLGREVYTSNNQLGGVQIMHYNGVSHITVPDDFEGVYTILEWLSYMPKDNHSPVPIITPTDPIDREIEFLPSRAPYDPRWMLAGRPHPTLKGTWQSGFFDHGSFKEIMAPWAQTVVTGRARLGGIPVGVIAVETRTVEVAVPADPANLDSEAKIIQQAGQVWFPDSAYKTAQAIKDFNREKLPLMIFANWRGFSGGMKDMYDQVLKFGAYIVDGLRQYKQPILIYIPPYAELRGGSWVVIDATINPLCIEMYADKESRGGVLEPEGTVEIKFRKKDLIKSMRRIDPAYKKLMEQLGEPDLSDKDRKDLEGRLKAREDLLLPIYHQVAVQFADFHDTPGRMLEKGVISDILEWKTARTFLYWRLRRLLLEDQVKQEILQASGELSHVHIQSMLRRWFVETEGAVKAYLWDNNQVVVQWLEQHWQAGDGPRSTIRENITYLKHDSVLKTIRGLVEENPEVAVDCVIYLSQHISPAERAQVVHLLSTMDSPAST

As usually defined, the IC50 is the midpoint of a concentration-inhibition curve. As for `CC(C)(C)n1cc2c(n1)C(=O)CC1(CCN(C(=O)c3cnc4ccc(OCC(N)=O)cc4c3)CC1)C2` [Example 46, 2-({3-[(2-tert-butyl-7-oxo-2,4,6,7-tetrahydro-1′H-spiro[indazole-5,4′-piperidin]-1′-yl)carbonyl]quinolin-6-yl}oxy)acetamide], the IC50 turned out to be 14 nM in test [1] and 3.8 nM in test [2].
Consider `CC(C)(C)n1cc2c(n1)C(=O)CC1(CCN(C(=O)c3ccc4ccc(N)nc4c3)CC1)C2` [Example 47, 1′-[(2-aminoquinolin-7-yl)carbonyl]-2-tert-butyl-2,4-dihydrospiro[indazole-5,4′-piperidin]-7(6H)-one], for which the half-maximal inhibitory concentration (IC50) is 5.3 nM in test [1] and 1.3 nM in test [2].
Consider `O=C1CC2(CCN(C(=O)c3ccc4[nH]ncc4c3)CC2)Cc2cn(C34CC(C3)C4)nc21` [Example 48, 2-bicyclo[1.1.1]pent-1-yl-1′-(1H-indazol-5-ylcarbonyl)-2,4-dihydrospiro[indazole-5,4′-piperidin]-7(6H)-one], for which the IC50 in test [1] was 32 nM; in test [2], 5.6 nM.
As to `NC(=O)c1n[nH]c2ccc(C(=O)N3CCC4(CC3)CC(=O)c3c(cnn3C35CC(C3)C5)C4)cc12` [Example 49, 5-[(1-bicyclo[1.1.1]pent-1-yl-7-oxo-1,4,6,7-tetrahydro-1′H-spiro[indazole-5,4′-piperidin]-1′-yl)carbonyl]-1H-indazole-3-carboxamide], the IC50 is 12 nM in test [1] and 8.4 nM in test [2].

For the origin of these results see patent US8802688B2, “Substituted acetyl-coa carboxylase inhibitors” (Pfizer Inc., priority 2011, dated 2014).
